From ChEMBL document CHEMBL2440076, “New triarylpyrazoles as broad-spectrum anticancer agents: design, synthesis, and biological evaluation” (Eur J Med Chem, 2013)

Legend:
[1] = system: OVCAR-4; experiment: Growth inhibition of human OVCAR4 cells after 48 hrs by sulforhodamine B assay; type: functional; details: OVCAR-4, 48 h
[2] = system: UO-31; experiment: Growth inhibition of human UO31 cells assessed as cell growth at 10 uM after 48 hrs by sulforhodamine B assay; type: functional; details: UO-31, 48 h, read-out: Activity
[3] = system: SK-MEL-5; experiment: Growth inhibition of human SK-MEL-5 cells assessed as cell growth at 10 uM after 48 hrs by sulforhodamine B assay; type: functional; details: SK-MEL-5, 48 h, read-out: Activity
[4] = system: 786-0; experiment: Growth inhibition of human 786-0 cells after 48 hrs by sulforhodamine B assay; type: functional; details: 786-0, 48 h
[5] = system: RPMI-8226; experiment: Growth inhibition of human RPMI8226 cells assessed as cell growth at 10 uM after 48 hrs by sulforhodamine B assay; type: functional; details: RPMI-8226, 48 h, read-out: Activity
[6] = system: OVCAR-8; experiment: Growth inhibition of human OVCAR8 cells after 48 hrs by sulforhodamine B assay; type: functional; details: OVCAR-8, 48 h
[7] = system: UACC-257; experiment: Growth inhibition of human UACC257 cells assessed as cell growth at 10 uM after 48 hrs by sulforhodamine B assay; type: functional; details: UACC-257, 48 h, read-out: Activity
[8] = system: IGROV-1; experiment: Growth inhibition of human IGROV1 cells assessed as cell growth at 10 uM after 48 hrs by sulforhodamine B assay; type: functional; details: IGROV-1, 48 h, read-out: Activity
[9] = system: K562; experiment: Growth inhibition of human K562 cells assessed as cell growth at 10 uM after 48 hrs by sulforhodamine B assay; type: functional; details: K562, 48 h, read-out: Activity
[10] = system: T47D; experiment: Growth inhibition of human T47D cells assessed as cell growth at 10 uM after 48 hrs by sulforhodamine B assay; type: functional; details: read-out: Activity
[11] = system: UACC-62; experiment: Growth inhibition of human UACC62 cells assessed as cell growth at 10 uM after 48 hrs by sulforhodamine B assay; type: functional; details: UACC-62, 48 h, read-out: Activity
[12] = system: SK-MEL-5; experiment: Growth inhibition of human SK-MEL-5 cells after 48 hrs by sulforhodamine B assay; type: functional; details: SK-MEL-5, 48 h
[13] = system: OVCAR-3; experiment: Growth inhibition of human OVCAR3 cells after 48 hrs by sulforhodamine B assay; type: functional, cell-based; details: OVCAR-3, 48 h
[14] = system: SW-620; experiment: Growth inhibition of human SW620 cells after 48 hrs by sulforhodamine B assay; type: functional; details: SW-620, 48 h
[15] = system: CCRF-CEM; experiment: Growth inhibition of human CCRF-CEM cells after 48 hrs by sulforhodamine B assay; type: functional
[16] = system: NCI-H460; experiment: Growth inhibition of human NCI-H460 cells assessed as cell growth at 10 uM after 48 hrs by sulforhodamine B assay; type: functional; details: NCI-H460, 48 h, read-out: Activity
[17] = system: OVCAR-8; experiment: Growth inhibition of human OVCAR8 cells assessed as cell growth at 10 uM after 48 hrs by sulforhodamine B assay; type: functional; details: OVCAR-8, 48 h, read-out: Activity
[18] = system: RXF 393; experiment: Growth inhibition of human RXF393 cells assessed as cell growth at 10 uM after 48 hrs by sulforhodamine B assay; type: functional; details: RXF 393, 48 h, read-out: Activity
[19] = system: MOLT-4; experiment: Growth inhibition of human MOLT4 cells assessed as cell growth at 10 uM after 48 hrs by sulforhodamine B assay; type: functional; details: MOLT-4, 48 h, read-out: Activity
[20] = system: CAKI-1; experiment: Growth inhibition of human CAKI-1 cells after 48 hrs by sulforhodamine B assay; type: functional; details: CAKI-1, 48 h
[21] = system: Malme-3M; experiment: Growth inhibition of human MALME-3M cells assessed as cell growth at 10 uM after 48 hrs by sulforhodamine B assay; type: functional; details: read-out: Activity
[22] = system: OVCAR-5; experiment: Growth inhibition of human OVCAR5 cells assessed as cell growth at 10 uM after 48 hrs by sulforhodamine B assay; type: functional; details: OVCAR-5, 48 h, read-out: Activity
[23] = system: SF-539; experiment: Growth inhibition of human SF539 cells assessed as cell growth at 10 uM after 48 hrs by sulforhodamine B assay; type: functional; details: SF-539, 48 h, read-out: Activity
[24] = system: RPMI-8226; experiment: Growth inhibition of human RPMI8226 cells after 48 hrs by sulforhodamine B assay; type: functional, cell-based; details: RPMI-8226, 48 h
[25] = system: MDA-MB-468; experiment: Growth inhibition of human MDA-MB-468 cells assessed as cell growth at 10 uM after 48 hrs by sulforhodamine B assay; type: functional; details: MDA-MB-468, 48 h, read-out: Activity
[26] = system: NCI-H226; experiment: Growth inhibition of human NCI-H226 cells assessed as cell growth at 10 uM after 48 hrs by sulforhodamine B assay; type: functional; details: NCI-H226, 48 h, read-out: Activity
[27] = system: SN12C; experiment: Growth inhibition of human SN12C cells assessed as cell growth at 10 uM after 48 hrs by sulforhodamine B assay; type: functional; details: read-out: Activity
[28] = system: TK-10; experiment: Growth inhibition of human TK10 cells after 48 hrs by sulforhodamine B assay; type: functional; details: TK-10, 48 h
[29] = system: HOP-92; experiment: Growth inhibition of human HOP92 cells after 48 hrs by sulforhodamine B assay; type: functional, cell-based; details: HOP-92, 48 h
[30] = system: MDA-MB-468; experiment: Growth inhibition of human MDA-MB-468 cells after 48 hrs by sulforhodamine B assay; type: functional, cell-based; details: MDA-MB-468, 48 h
[31] = system: NCI-H522; experiment: Growth inhibition of human NCI-H522 cells after 48 hrs by sulforhodamine B assay; type: functional; details: NCI-H522, 48 h
[32] = system: HL-60(TB); experiment: Growth inhibition of human HL-60(TB) cells after 48 hrs by sulforhodamine B assay; type: functional; details: HL-60, 48 h
[33] = system: SK-OV-3; experiment: Growth inhibition of human SKOV3 cells after 48 hrs by sulforhodamine B assay; type: functional; details: SK-OV-3, 48 h
[34] = read-out: LC50 (the source's name)

With `COc1cc(-c2nn(-c3cccc(NC(=O)Nc4ccc(Cl)c(Cl)c4)c3)cc2-c2ccncc2)ccc1Cl` as the compound, how does the GI50 [1] read?
The GI50 was 1.29 µM.

And the LC50 (concentration killing 50% of cells) [1]?
Its LC50 (concentration killing 50% of cells) is > 50 µM.

What about the TGI [1] of the same compound?
Its TGI is > 50 µM.

What about the growth at 10 µM [2] of the same compound?
Its growth at 10 µM is 15.9%.

And the growth at 10 µM [3]?
Its growth at 10 µM is -80%.

And the GI50 [4]?
The GI50 was 1.31 µM.

What about the TGI [4] of the same compound?
The TGI was 4.47 µM.

And the CC50 [4, 34]?
The CC50 was > 50 µM.

And the growth at 10 µM [5]?
The growth at 10 µM was -11.6%.

What about the GI50 [6] of the same compound?
The GI50 was 0.931 µM.

What about the TGI [6] of the same compound?
Its TGI is 3.61 µM.

What about the CC50 [6, 34] of the same compound?
The CC50 was > 50 µM.

And the growth at 10 µM [7]?
Its growth at 10 µM is -36.6%.

What about the growth at 10 µM [8] of the same compound?
Its growth at 10 µM is 23.9%.

What about the growth at 10 µM [9] of the same compound?
The growth at 10 µM was 3.63%.

And the growth at 10 µM [10]?
Its growth at 10 µM is 2.98%.

What about the growth at 10 µM [11] of the same compound?
Its growth at 10 µM is -65.1%.

And the GI50 [12]?
Its GI50 is 0.741 µM.

What about the LC50 (concentration killing 50% of cells) [12] of the same compound?
Its LC50 (concentration killing 50% of cells) is 3.02 µM.

And the TGI [12]?
The TGI was 1.49 µM.

What about the GI50 [13] of the same compound?
The GI50 was 0.697 µM.

What about the IC50 [13] of the same compound?
The IC50 was 0.7 µM.

And the TGI [13]?
The TGI was 2.27 µM.

What about the CC50 [13, 34] of the same compound?
Its CC50 is > 50 µM.

What about the GI50 [14] of the same compound?
Its GI50 is 1.59 µM.

And the TGI [14]?
Its TGI is > 50 µM.

What about the CC50 [14, 34] of the same compound?
The CC50 was > 50 µM.

And the GI50 [15]?
The GI50 was 1.04 µM.

And the LC50 [15]?
Its LC50 is > 50 µM.

And the growth at 10 µM [16]?
Its growth at 10 µM is 2.32%.

And the growth at 10 µM [17]?
The growth at 10 µM was -17.2%.

And the growth at 10 µM [18]?
The growth at 10 µM was -22.8%.

And the growth at 10 µM [19]?
The growth at 10 µM was -11.1%.

And the GI50 [20]?
Its GI50 is 1.12 µM.

What about the TGI [20] of the same compound?
Its TGI is 3.7 µM.

What about the CC50 [20, 34] of the same compound?
The CC50 was > 50 µM.

And the growth at 10 µM [21]?
Its growth at 10 µM is -19.9%.

What about the growth at 10 µM [22] of the same compound?
The growth at 10 µM was 38%.

And the growth at 10 µM [23]?
Its growth at 10 µM is 12.3%.

What about the GI50 [24] of the same compound?
Its GI50 is 0.388 µM.

And the IC50 [24]?
The IC50 was 0.39 µM.

What about the TGI [24] of the same compound?
Its TGI is 3.26 µM.

What about the CC50 [24, 34] of the same compound?
The CC50 was > 50 µM.

What about the growth at 10 µM [25] of the same compound?
The growth at 10 µM was 2.14%.

And the growth at 10 µM [26]?
The growth at 10 µM was 9.61%.

What about the growth at 10 µM [27] of the same compound?
The growth at 10 µM was 10.7%.

And the GI50 [28]?
Its GI50 is 1.43 µM.

And the TGI [28]?
The TGI was 40.9 µM.

And the CC50 [28, 34]?
The CC50 was > 50 µM.

And the GI50 [29]?
The GI50 was 0.151 µM.

And the IC50 [29]?
The IC50 was 0.15 µM.

What about the LC50 [29] of the same compound?
The LC50 was > 50 µM.

What about the TGI [29] of the same compound?
Its TGI is 1.47 µM.

And the GI50 [30]?
The GI50 was 0.567 µM.

What about the IC50 [30] of the same compound?
Its IC50 is 0.57 µM.

And the TGI [30]?
The TGI was 2.27 µM.

What about the CC50 [30, 34] of the same compound?
The CC50 was > 50 µM.

What about the GI50 [31] of the same compound?
Its GI50 is 0.811 µM.

What about the LC50 (concentration killing 50% of cells) [31] of the same compound?
Its LC50 (concentration killing 50% of cells) is > 50 µM.

And the TGI [31]?
The TGI was 3.1 µM.

What about the GI50 [32] of the same compound?
The GI50 was 1.66 µM.

What about the TGI [32] of the same compound?
Its TGI is > 50 µM.

What about the CC50 [32, 34] of the same compound?
The CC50 was > 50 µM.

What about the GI50 [33] of the same compound?
Its GI50 is 1.93 µM.

And the TGI [33]?
The TGI was > 50 µM.

And the CC50 [33, 34]?
Its CC50 is > 50 µM.
